Test results from ChEMBL document CHEMBL1201862, “PubChem BioAssay data set” (2004).
Calls of active or inactive are those of the source.

Assays:
[1] = IC50 of Artemis nuclease activity blockers – biochemical, fluorescence intensity, dose response (AID 720701); type: functional;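 also: Artemis endonuclease enzyme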
[2] = viability loss in THP-1 monocytes – THP-1 cells, cytotoxicity control for Vif-APOBEC3G degradation inhibitor project, dose response (AID 1117359); type: functional; details: THP-1
[3] = viability of uninfected HEp-2 cells – cell-based, HTS, cytotoxicity control for RSV inhibitor project, dose response (AID 2410); type: functional; details: human respiratory syncytial virus
[4] = viability inhibitors of stage V gametocytes – luminescence, dose response (AID 1117278); type: functional, cell-based;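 also: gametocytes exposed to compound for 24 hours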
[5] = viability loss in human Jurkat cells – cell-based, luminescence, cytotoxicity control for P. falciparum gametocyte viability project, dose response (AID 1117277); type: functional;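 also: potency reflects loss of cellular ATP meaning fewer viable cells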
[6] = molecular target: T1, Histone-lysine N-methyltransferase NSD2 (Homo sapiens, UniProt O96028); type: biochemical
T1 sequence (O96028 whole entry): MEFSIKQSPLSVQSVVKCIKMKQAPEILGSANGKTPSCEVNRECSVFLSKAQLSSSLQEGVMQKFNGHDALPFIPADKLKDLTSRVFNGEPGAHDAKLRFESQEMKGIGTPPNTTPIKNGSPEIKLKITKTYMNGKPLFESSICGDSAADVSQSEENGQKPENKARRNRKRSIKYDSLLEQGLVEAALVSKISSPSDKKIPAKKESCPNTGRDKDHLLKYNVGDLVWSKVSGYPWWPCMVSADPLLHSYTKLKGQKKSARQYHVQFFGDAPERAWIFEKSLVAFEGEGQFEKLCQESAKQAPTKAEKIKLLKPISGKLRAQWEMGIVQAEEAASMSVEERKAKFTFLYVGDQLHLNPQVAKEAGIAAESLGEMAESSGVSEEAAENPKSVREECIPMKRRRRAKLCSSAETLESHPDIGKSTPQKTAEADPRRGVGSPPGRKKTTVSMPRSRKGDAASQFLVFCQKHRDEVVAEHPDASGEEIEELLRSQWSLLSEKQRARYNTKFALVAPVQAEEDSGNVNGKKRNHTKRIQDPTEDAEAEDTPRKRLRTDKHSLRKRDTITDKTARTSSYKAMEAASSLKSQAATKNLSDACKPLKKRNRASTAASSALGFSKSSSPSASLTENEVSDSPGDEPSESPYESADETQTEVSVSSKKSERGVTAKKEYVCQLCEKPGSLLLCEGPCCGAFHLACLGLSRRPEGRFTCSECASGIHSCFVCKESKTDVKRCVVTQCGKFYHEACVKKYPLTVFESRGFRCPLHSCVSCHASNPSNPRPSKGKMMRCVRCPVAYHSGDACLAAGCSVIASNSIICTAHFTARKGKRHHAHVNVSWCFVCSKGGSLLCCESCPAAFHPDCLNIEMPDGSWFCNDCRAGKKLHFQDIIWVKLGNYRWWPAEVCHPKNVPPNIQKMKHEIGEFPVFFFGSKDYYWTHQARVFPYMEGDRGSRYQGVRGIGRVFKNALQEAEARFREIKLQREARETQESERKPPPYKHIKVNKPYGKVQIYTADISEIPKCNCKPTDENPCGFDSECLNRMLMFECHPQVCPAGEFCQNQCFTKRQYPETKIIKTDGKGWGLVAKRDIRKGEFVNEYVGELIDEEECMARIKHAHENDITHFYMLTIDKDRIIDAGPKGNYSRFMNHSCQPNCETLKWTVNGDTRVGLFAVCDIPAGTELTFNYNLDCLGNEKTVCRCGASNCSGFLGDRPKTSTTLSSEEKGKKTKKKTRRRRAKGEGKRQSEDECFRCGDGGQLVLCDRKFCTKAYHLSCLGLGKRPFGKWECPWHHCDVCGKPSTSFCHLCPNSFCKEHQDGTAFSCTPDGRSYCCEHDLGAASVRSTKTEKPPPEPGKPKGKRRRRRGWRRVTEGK

[7] = molecular target: Mitogen-activated protein kinase 10 (Homo sapiens, UniProt P53779); assay: Dose response biochemical screening assay for inhibitors of c-Jun N-Terminal Kinase 3 (JNK3). [Related pubchem assays: 746 ]
Sequence of Mitogen-activated protein kinase 10 (P53779 whole entry): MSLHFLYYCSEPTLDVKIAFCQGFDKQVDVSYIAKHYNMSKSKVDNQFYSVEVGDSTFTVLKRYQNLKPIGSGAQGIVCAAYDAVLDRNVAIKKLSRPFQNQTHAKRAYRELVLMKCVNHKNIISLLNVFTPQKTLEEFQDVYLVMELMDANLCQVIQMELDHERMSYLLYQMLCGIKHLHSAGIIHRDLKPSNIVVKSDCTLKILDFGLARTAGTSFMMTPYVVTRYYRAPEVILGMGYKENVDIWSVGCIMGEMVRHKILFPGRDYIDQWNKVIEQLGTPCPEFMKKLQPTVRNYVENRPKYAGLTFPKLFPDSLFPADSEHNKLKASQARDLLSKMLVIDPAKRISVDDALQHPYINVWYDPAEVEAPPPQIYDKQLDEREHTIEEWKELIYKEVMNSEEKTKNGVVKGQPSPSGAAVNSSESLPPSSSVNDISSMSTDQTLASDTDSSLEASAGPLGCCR

[8] = molecular target: T2, 1-phosphatidylinositol 4,5-bisphosphate phosphodiesterase beta-3 (Homo sapiens, UniProt Q01970); assay: Fluorescence-based biochemical high throughput dose response assay to identify inhibitors of phospholipase C isozymes (PLC-B3).
T2 sequence (Q01970 whole entry): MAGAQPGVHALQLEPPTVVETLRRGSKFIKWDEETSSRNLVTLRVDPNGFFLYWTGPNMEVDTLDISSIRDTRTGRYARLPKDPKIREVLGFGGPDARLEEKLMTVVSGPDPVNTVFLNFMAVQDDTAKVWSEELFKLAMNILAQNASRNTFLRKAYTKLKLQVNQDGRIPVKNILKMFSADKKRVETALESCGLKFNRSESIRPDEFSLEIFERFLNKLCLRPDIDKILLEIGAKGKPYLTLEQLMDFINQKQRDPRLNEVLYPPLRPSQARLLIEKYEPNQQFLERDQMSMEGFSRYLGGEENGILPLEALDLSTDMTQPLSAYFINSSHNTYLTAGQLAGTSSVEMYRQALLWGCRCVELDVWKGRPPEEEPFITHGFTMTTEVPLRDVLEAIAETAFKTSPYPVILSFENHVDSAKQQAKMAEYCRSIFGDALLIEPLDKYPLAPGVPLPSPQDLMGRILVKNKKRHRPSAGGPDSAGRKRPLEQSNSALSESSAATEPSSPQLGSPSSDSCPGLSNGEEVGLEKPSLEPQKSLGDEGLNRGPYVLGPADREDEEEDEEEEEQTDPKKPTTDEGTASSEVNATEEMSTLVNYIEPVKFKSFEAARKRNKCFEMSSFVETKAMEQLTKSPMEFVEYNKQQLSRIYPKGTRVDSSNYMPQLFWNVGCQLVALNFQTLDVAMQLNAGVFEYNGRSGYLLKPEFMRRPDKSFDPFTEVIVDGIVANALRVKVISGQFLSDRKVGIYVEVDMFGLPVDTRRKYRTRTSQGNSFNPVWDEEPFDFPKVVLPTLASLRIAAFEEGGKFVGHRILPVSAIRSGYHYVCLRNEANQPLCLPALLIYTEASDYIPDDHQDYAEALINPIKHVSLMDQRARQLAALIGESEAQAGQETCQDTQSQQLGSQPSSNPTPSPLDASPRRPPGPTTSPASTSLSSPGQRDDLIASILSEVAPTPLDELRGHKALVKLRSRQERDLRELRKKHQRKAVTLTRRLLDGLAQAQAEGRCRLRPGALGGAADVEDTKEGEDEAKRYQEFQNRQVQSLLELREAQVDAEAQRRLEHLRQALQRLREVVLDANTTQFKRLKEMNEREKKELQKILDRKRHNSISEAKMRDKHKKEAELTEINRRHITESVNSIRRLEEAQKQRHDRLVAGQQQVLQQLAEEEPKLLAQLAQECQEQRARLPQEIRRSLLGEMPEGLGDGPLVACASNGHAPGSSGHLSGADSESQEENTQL

[9] = molecular target: T3, 1-phosphatidylinositol 4,5-bisphosphate phosphodiesterase gamma-1 (Homo sapiens, UniProt P19174); assay: Counterscreen for inhibitors of phospholipase C isozymes (PLC-B3): Fluorescence-based biochemical high throughput dose response assay to identify inhibitors of phospholipase C isozymes (PLC-gamma1).
T3 sequence (P19174 whole entry): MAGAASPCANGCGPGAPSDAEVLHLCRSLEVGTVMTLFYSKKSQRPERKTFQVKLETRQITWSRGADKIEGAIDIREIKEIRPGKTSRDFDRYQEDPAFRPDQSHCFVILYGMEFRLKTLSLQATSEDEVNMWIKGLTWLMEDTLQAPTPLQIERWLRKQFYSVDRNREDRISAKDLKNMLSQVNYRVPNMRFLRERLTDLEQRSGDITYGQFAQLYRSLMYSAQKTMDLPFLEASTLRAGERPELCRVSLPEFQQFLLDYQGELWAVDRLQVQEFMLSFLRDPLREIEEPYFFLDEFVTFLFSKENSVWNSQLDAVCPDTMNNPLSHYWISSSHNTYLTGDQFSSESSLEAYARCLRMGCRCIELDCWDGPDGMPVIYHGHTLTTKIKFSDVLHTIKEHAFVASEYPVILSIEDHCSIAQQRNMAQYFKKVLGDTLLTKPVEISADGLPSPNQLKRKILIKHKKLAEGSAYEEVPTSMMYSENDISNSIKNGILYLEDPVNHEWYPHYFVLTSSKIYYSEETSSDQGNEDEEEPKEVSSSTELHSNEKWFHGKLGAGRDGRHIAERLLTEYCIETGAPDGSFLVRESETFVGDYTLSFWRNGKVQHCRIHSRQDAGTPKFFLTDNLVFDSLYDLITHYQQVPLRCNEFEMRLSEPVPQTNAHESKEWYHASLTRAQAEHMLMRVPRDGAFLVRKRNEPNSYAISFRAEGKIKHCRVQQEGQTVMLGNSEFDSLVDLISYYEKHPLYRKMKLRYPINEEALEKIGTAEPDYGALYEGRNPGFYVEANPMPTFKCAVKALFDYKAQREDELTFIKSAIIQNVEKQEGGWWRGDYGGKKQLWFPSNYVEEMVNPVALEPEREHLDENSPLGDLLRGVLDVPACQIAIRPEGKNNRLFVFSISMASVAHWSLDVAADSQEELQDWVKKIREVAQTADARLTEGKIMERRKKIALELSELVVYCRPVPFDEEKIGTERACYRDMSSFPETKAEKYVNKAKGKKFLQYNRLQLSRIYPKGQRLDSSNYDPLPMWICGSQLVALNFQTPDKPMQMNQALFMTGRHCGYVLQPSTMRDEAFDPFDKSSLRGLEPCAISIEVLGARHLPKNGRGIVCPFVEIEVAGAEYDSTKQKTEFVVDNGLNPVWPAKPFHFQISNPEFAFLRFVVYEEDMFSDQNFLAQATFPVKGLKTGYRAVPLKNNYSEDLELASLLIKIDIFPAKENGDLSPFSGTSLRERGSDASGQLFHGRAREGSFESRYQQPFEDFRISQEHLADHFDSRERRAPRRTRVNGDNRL

[10] = molecular target: T4, Estrogen receptor beta (Homo sapiens, UniProt Q92731); assay: blockers of SRC-3 recruitment to ERβ – biochemical, ELISA, streptavidin-HRP readout, orthogonal assay, confirmation (AID 1060)
T4 sequence (Q92731 whole entry): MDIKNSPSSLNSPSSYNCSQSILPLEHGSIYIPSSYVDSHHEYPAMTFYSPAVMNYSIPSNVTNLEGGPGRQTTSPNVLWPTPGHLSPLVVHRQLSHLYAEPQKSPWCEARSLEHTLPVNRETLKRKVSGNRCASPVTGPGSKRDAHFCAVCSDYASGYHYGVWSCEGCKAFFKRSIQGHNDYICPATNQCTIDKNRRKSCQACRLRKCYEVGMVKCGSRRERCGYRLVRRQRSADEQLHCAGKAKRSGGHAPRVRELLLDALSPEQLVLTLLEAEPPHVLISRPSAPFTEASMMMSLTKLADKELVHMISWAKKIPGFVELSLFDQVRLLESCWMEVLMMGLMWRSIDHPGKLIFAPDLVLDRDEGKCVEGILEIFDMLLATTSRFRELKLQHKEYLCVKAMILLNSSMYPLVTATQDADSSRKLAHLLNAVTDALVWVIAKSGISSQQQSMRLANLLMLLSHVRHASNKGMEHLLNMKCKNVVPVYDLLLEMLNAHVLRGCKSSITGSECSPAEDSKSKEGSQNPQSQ

[11] = molecular target: DNA dC->dU-editing enzyme APOBEC-3G (Homo sapiens, UniProt Q9HC16); type: functional;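 also: Dose-response counterscreen measuring inhibition of APOBEC3G DNA deaminase activity, run while confirming APOBEC3A inhibitors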
Sequence of DNA dC->dU-editing enzyme APOBEC-3G (Q9HC16 whole entry): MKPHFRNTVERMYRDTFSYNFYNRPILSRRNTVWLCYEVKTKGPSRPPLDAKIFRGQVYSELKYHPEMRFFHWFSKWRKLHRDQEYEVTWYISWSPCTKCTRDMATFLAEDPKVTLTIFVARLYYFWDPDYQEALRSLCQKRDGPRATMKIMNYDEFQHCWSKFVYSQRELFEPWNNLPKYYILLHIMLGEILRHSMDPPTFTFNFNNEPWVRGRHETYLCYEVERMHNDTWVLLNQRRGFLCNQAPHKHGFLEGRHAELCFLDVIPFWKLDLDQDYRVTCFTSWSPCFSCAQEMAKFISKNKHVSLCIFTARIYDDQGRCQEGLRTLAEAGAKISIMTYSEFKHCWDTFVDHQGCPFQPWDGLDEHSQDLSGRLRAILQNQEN

[12] = molecular target: DNA dC->dU-editing enzyme APOBEC-3A (Homo sapiens, UniProt P31941); assay: Dose Response confirmation of small molecule APOBEC3A DNA Deaminase Inhibitors via a fluorescence-based single-stranded DNA deaminase assay. [Related pubchem assays (depositor defined):AID493011, AID493024]; type: functional
Sequence of DNA dC->dU-editing enzyme APOBEC-3A (P31941 whole entry): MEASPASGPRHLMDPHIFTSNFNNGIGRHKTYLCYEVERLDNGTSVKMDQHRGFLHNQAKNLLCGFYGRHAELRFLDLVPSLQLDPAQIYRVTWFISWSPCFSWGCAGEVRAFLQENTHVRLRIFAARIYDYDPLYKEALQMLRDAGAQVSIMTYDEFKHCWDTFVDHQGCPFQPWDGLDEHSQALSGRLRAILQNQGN

[13] = molecular target: T4, Estrogen receptor beta
[14] = test system: INS1; assay: INS-1E survival protection against cytokine death – cell-based, luminescence, retest, dose response (AID 449756); type: functional; details: Rattus norvegicus;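 also: cell death triggered by IL-1 beta plus TNF-alpha plus IFN-gamma mixture; protective hits raise ATP signal compared with cytokine alone wells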
[15] = Luminescence Cell-Based Dose Retest to Confirm Inhibitors of Cancer Stem Cells. [Related pubchem assays (depositor defined):AID2717, AID2721]; type: functional; details: Homo sapiens
[16] = general cell-killing toxicity readout – plate reader, dry powder samples, cytotoxicity control for PAX8 inhibitor project, dose response (AID 743021); type: functional, cell-based
[17] = molecular target: Paired box protein Pax-8 (Homo sapiens, UniProt Q06710); assay: PAX8 transcriptional activity inhibition in RMG-I – RMG-I cells, luciferase, cherry-pick, dose response (AID 687027); type: functional, cell-based;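 also: luciferase reporter driven by Pax8 target thyroperoxidase promoter measured by SteadyGlo luminescence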
Sequence of Paired box protein Pax-8 (Q06710 whole entry): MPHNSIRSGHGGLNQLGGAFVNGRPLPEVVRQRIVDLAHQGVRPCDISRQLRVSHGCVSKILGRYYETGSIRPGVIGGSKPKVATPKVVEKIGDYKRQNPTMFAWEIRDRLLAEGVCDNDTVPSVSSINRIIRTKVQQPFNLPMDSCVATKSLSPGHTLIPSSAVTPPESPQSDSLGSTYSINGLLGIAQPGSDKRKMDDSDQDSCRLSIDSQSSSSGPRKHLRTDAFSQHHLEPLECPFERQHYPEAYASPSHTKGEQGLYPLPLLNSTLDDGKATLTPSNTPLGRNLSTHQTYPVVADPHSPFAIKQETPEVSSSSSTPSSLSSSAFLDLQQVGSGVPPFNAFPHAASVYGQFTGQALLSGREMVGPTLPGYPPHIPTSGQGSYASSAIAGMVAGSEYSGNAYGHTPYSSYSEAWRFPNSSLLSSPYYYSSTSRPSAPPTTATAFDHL

[18] = OVCAR-3 cell viability loss – plate reader, dry powder samples, PAX8 inhibitor project, dose response (AID 743044); type: functional, cell-based
[19] = OVCAR8 cell viability loss – plate reader, dry powder samples, PAX8 project, dose response (AID 743197); type: functional, cell-based; details: OVCAR-8

CCOC(=O)N1CCN(Cc2nc(N)nc(Nc3ccc(Oc4ccccc4)cc3)n2)CC1
IC50 [1]: > 20 µM (inactive)

CCN=c1ccc(Br)cc(C(=O)/C=C/c2ccc3c(c2)OCO3)c1O
CC50 [2]: 32.6 µM (active)
CC50 [3]: 13.8 µM (active)
IC50 [1]: > 20 µM (inactive)

CCCCCNc1nc(NCCCO)c(C#N)c2c1CN(C)CC2
IC50 [4]: > 109 µM (inactive)
IC50 [5]: > 83.3 µM (inactive)
AC50 [6]: > 20 µM (inactive)

CCOC(=O)CSc1nc2c(sc3ccccc32)c(=O)n1CCCN1CCOCC1
IC50 [7]: 40 µM (not active)

O=C(NCc1ccccc1)c1[nH]nnc1-c1ccccc1O
IC50 [8]: > 122 µM (inactive)
IC50 [9]: 108 µM (inactive)

O=C1N=C(S)SC1=C1CCCC1
IC50 [8]: > 122 µM (inactive)
IC50 [10]: 240 nM (not active)
IC50 [11]: 7.39 µM (active)
IC50 [9]: 47.5 µM (inactive)
IC50 [12]: 5.61 µM (active)
IC50 [13]: > 50 µM (not active)

COC(=O)c1c(NC(=O)Cc2cccs2)sc(C)c1C
IC50 [7]: 34.8 µM (not active)

CCOC(=O)c1c(NC(=O)CSc2nnc(-c3ccco3)o2)sc(C)c1C
IC50 [4]: > 109 µM (inactive)
IC50 [5]: > 83.3 µM (inactive)

O=c1[nH]c(=S)c2c(n1-c1ccccc1)CCC2
IC50 [7]: 76 µM (not active)

FC(F)(F)c1cnc(Oc2ccccc2-c2nnc(-c3ccc(Cl)cc3)o2)c(Cl)c1
IC50 [8]: > 123 µM (inactive)
IC50 [9]: > 123 µM (inactive)

Cc1nnc2sc(SCC(=O)Nc3ccc(Br)cc3)nn2c1=O
IC50 [4]: > 109 µM (inactive)
IC50 [5]: > 83.3 µM (inactive)

O=C(C[C@@H]1C/C=C/CC[C@H](Cc2ccc(F)cc2)C(=O)OC[C@@H](Cc2ccccc2)NC1=O)N[C@H](CO)Cc1ccccc1
AC50 [14]: 5 µM (active)
AC50 [15]: 956 nM (active)
AC50 [16]: 33.4 µM (active)
AC50 [17]: 15 µM (active)

C[C@@H]1CCCCO[C@H](CN(C)Cc2ccc(C(F)(F)F)cc2)[C@H](C)CN([C@H](C)CO)C(=O)c2cc(NC(=O)c3ccccc3)ccc2O1
AC50 [18]: 43.7 µM (active)
AC50 [19]: 45.2 µM (active)
AC50 [17]: 10.1 µM (active)
